Data published in US12551581B2, “Combination cancer immunotherapy with pentaaza macrocyclic ring complex” (Galera Labs, LLC, priority 2017, dated 2026).
Like-named read-outs stand apart in the source and are kept apart here.

What was measured:
[1] = test system: 4T1 tumors and lung metastases; assay: 4T1 metastatic breast cancer model, GC4419 with radiation and anti-CTLA4; assay type: in vivo, mice (syngeneic)
Description: Specifically, as shown in FIGS. 4A-4C, GC4419 decreases metastasis and enhances the efficacy of the combination of radiation and T-cell checkpoint inhibitor anti-CTLA4 (9D9) in the 4T1 metastatic breast cancer model. Syngeneic animals were subcutaneously implanted with 4T1 cells to form a xenograft. On day 12, when no lung metastasis is present, animals were treated with GC4419 (24 mg/kg), 15 Gy of 250 kVp X-rays, and/or anti CTLA-4 antibodies (10 mg/kg) or IgG control antibodies, as described in Table 3 below. Tumor growth was tracked as a function of time and at day 35 post implantation ([…]), animals were euthanized and lungs collected to count metastases.

4T1 tumors [2] = assay: 4T1 tumor volume with GC4419 and/or radiation in immunocompetent mice; assay type: in vivo, Balb/c mice
Description: (§1) In separate studies, either syngeneic Balb/c mice or immunodeficient nu/nu mice were subcutaneously implanted with 4T1 cells to form a xenograft. On day 11 after transplant, animals were treated with GC4419 (24 mg/kg) and/or 15 Gy of 250 kVp X-rays, as described in Table 5 below.
(§2) Tumor volume was tracked as a function of time, and Day 17 (the last common day of measurement between the two studies given the rapid growth of tumors in the nu/nu mice) mean tumor volumes are described in Table 6 below.

LLC tumors = assay: LLC abscopal study, GC4419 with radiation and anti-CTLA4, primary and secondary tumors; assay type: in vivo, C57Bl/6 mice
Description: Syngeneic animals (C57Bl/6 mice) were subcutaneously implanted with LLC cells in the right flank to form a xenograft (primary tumor). On day 2, the same animals were subcutaneously implanted with LLC cells in the left flank for form another xenograft (secondary tumor). On day 8, some animals began treatment with anti CTLA-4 antibodies (200 μg) as indicated below. On day 11, when both primary and secondary tumors were palpable, all animals were treated with GC4419 (24 mg/kg), 15 Gy of 250 kVp X-rays, and/or anti CTLA-4 antibodies (10 mg/kg), as described in Table 10 below. Tumor growth was tracked as a function of time for both primary and secondary tumors.

[3] = rat model; Tuder et al. 2003; cited from earlier work
[4] = test system: Colon 26 mouse colon cancer cell line tumors; assay: Colon 26 syngeneic tumor model, GC4419 with anti-PD1; assay type: in vivo, Balb/C mice; details: 1 and 3 mg/kg bid ip GC4419 added to anti-PD1 5 mg/kg; versus anti-PD1 alone
Description: GC4419 was administered in combination with the T-cell checkpoint inhibitor anti-PD-1 (RMP1-14) to female Balb/C mice implanted with the mouse colon cancer cell line, Colon 26 beginning on day 3 post-implantation. Tumors were allowed to grow for up to 52 days or until they exceeded 1000 mm3.
Treatments with the antibody and GC4419 are described in Table 1.
Tumor volumes were assessed and median and mean values are shown in FIG. 1 (Median Tumor Volumes in Colon 26 Model) and 2 (Mean Tumor Volumes in Colon 26 Model).

[5] = head-and-neck cancer patients undergoing chemoradiation therapy; Anderson 2015; cited from earlier work
[6] = test system: Lewis lung carcinoma (LLC) tumors; assay: Lewis lung carcinoma tumors, GC4419 plus ionizing radiation; assay type: in vivo, C57.CL/6 mice
Description: The effects of GC4419 plus IR on intratumoral levels of key immune cell populations were tested in Lewis lung carcinoma (LLC) tumors. In the study, 4 week old C57.CL/6 mice were injected with LLC cells to form tumors. At 13 days post-injection, animals were treated with GC4419 at doses of 3, 10 and 24 mg/kg and 15 Gy of 250 kVp X-rays. Tumor growth was tracked until tumor size exceeded 2 cm in any one direction. In addition, tumor infiltrating lymphocyte populations were assessed in separate animals via flow cytometry at various time points post IR (15 Gy) in combination with 10 mg/kg GC4419 treatment. Intratumoral populations of neutrophils, macrophages and activated cytotoxic T-cells were altered due to the presence of GC4419 either with or without ionizing radiation, as shown in FIG. 6B. However, it is unclear from this study alone whether these transient alterations in the immune cell populations caused by GC4419 contribute to improved results for the combination of GC4419 with checkpoint inhibitor therapy combined or in the absence of radiation therapy.

[7] = test system: 4T1 mouse breast cancer tumors; assay: 4T1 syngeneic model, GC4419 with anti-CTLA-4, delayed/skip dosing (Example 6); assay type: in vivo, Balb/C mice
Description: GC4419 was administered in combination with the T-cell checkpoint inhibitor anti-CTLA-4 (9D9) to female Balb/C mice implanted subcutaneously with the mouse breast cancer cell line, 4T1. Tumors were allowed to grow for up to 35 days or until they exceeded 3000 mm^3 (or Group mean of 2000 mm^3).
Treatments with the antibody and GC4419 are described in Table 8.
Tumor volumes were assessed and mean values are shown in FIGS. 5C and 5D (Mean Tumor Volumes in 4T1 Model).

[8] = test system: 4T1 mouse breast cancer tumors; assay: 4T1 syngeneic tumor model, GC4419 with anti-CTLA-4, start day varied (Example 5); assay type: in vivo, Balb/C mice
Description: GC4419 was administered in combination with the T-cell checkpoint inhibitor anti-CTLA-4 (9D9) to female Balb/C mice implanted subcutaneously with the mouse breast cancer cell line, 4T1. Tumors were allowed to grow for up to 45 days or until they exceeded 3000 mm^3 (or Group mean of 2000 mm^3).
Treatments with the antibody and GC4419 are described in Table 7.
Tumor volumes were assessed and mean values are shown in FIG. 5A (Mean Tumor Volumes in 4T1 Model).
FIG. 5B depicts such an improvement occurring for dosing of GC4419 that is delayed until day 13 after a start of anti-CTLA4 administration (i.e., after the 5th dose of anti-CTLA4). In comparison of arms treated with (a) combination of GC4419 with anti-CTLA4 treatment and (b) anti-CTLA4 treatment alone, no difference should be apparent between the two arms before addition of GC4419 treatment. As a result tumor control was assessed by normalizing the tumor growth curves of each arm with respect to the day on which treatment with GC4419 was started in the combination arm (i.e., day 13 in FIG. 5B).

4T1 tumors [9] = assay: 4T1 tumor volume with GC4419 and/or radiation in immunodeficient mice; assay type: in vivo; details: nu/nu mice
Description: as §1, §2

[10] = lethal total body irradiation, adult mice; Thompson et al. 2010; cited from earlier work
[11] = hamster oral mucositis; Murphy et al. 2008; cited from earlier work
[12] = rats, experimental colitis; Cuzzocrea et al. 2001; cited from earlier work
[13] = rat collagen-induced arthritis; Salvemini et al. 2001; cited from earlier work
[14] = rat model; Salvemini et al. 1999; cited from earlier work

[Cl][Mn][Cl].c1cc2nc(c1)CN[C@H]1CCCC[C@@H]1NCCN[C@H]1CCCC[C@@H]1NC2 [GC4419]
sensitization of tumors to radiation (tumor volume, FIG. 4A) ([1]; GC4419 24 mg/kg D12-16 with 15 Gy RT D12): sensitized 4T1 tumors to radiation regardless of GC4419 dose
efficacy of combination anti CTLA-4 therapy and radiation therapy (tumor volume, FIG. 4B) ([1]; GC4419 24 mg/kg added to anti-CTLA4 10 mg/kg + 15 Gy RT): enhanced the efficacy of combination anti CTLA-4 therapy and radiation therapy
number of surface lung metastases (FIG. 4C) ([1]; day 35 post implantation): significantly decreased the number of metastases
% Mice without Lung Metastases ([1]; day 35 post implantation, GC4419 24 mg/kg, RT 15 Gy, anti-CTLA4 10 mg/kg): 0%
V(x) / V(Group 3) (4T1 tumors [2]; Balb/c mice, Day 17 volume relative to RT alone group): 1.25
Day 17 Tumor Volume, V (4T1 tumors [2]; Balb/c mice, mean, GC4419 24 mg/kg D11-15, RT 15 Gy D11): 1923 mm^3
tumor growth (4T1 tumors [2]; Balb/c mice, radiation plus GC4419 versus radiation alone): further tumor growth reduction
increase in response to combined radiation and GC4419 treatment (4T1 tumors [2]; Balb/c versus nu/nu mice): greater in immunocompetent mice than in immunodeficient mice
sensitization of primary and secondary tumors to radiation (growth delay) (LLC tumors; GC4419 D11-15 with 15 Gy RT D11 to primary tumor): sensitized primary and secondary tumors to radiation
growth of secondary tumors (FIG. 8E) (LLC tumors; GC4419 added to anti CTLA-4 therapy and radiation therapy): slowed the growth of secondary tumors
sensitization of primary tumors to combination of anti CTLA-4 therapy and radiation therapy (LLC tumors; GC4419 added to anti-CTLA4 200 μg + 15 Gy RT): sensitized
VEGFr inhibitor-induced pulmonary disease [3]: attenuate VEGFr inhibitor-induced pulmonary disease
tumor growth [4]: further decrease
oral mucositis [5]: reduce oral mucositis
intratumoral populations of neutrophils, macrophages and activated cytotoxic T-cells ([6]; 10 mg/kg GC4419 with or without IR 15 Gy, flow cytometry, various time points): altered
sensitization of tumors to ionizing radiation (FIG. 6A) ([6]; GC4419 3, 10 and 24 mg/kg with 15 Gy): sensitized tumors to ionizing radiation regardless of dose
tumor volumes ([7]; 3 mg/kg or 10 mg/kg GC4419 added to anti-CTLA4, started at least 3 days after antibody): significant further decrease in tumor volumes
tumor volume (FIG. 5D) ([7]; GC4419 10 mg/kg versus 3 mg/kg, with anti-CTLA4): improved results over a dose of 3 mg/kg
tumor volume (FIG. 5C) ([7]; skipping GC4419 on days when anti-CTLA4 was administered): further improved the results, albeit slightly
tumor growth ([8]; 3 mg/kg GC4419 QD x 21 added, started at least 3 days after antibody treatment): further decrease
normalized tumor growth (FIG. 5B) ([8]; GC4419 start delayed until day 13 after start of anti-CTLA4, versus anti-CTLA4 alone): reduced tumor growth
Day 17 Tumor Volume, V (4T1 tumors [9]; mean, GC4419 24 mg/kg D11-15, RT 15 Gy D11): All sac'd at Day 13
tumor growth (4T1 tumors [9]; radiation plus GC4419 versus radiation alone): further tumor growth reduction

[Cl-].[Cl-].[Mn+2].c1cc2nc(c1)CN[C@@H]1CCCC[C@H]1NCCN[C@@H]1CCCC[C@H]1NC2 [GC4403]
radiation damage [10]: attenuate the radiation damage
radiation damage [11]: attenuate the radiation damage
injury to the colon [12]: very significantly reduce the injury to the colon
joint disease [13]: prevent joint disease
inflammation [14]: inhibit inflammation
